Measurements from patent publication US8309558B2, “Compounds for the treatment of hepatitis C” (Bristol-Myers Squibb Company, priority 2008, dated 2012).
Read-outs that look alike come from different tables or passages of the source.

Test system: HCV replicon cells
Assay: HCV replicon FRET / luciferase assay (96-well plates)
Assay type: cell-based
Conditions: HCV replicon, read-out: EC50
From the text: FRET Assay Preparation. To perform the HCV FRET screening assay, 96-well cell culture plates were used. The FRET peptide (Anaspec, Inc.) (Taliani et al., Anal. Biochem. 1996, 240, 60-67) contains a fluorescence donor, EDANS, near one end of the peptide and an acceptor, DABCYL, near the other end. The fluorescence of the peptide is quenched by […] resonance energy transfer (RET) between the donor and the acceptor, but as the NS3 protease cleaves the peptide the products are released from RET quenching and the fluorescence of the donor becomes apparent. The assay reagent was made as follows: 5× cell Luciferase cell culture lysis reagent from Promega (#E153A) diluted to 1× with dH2O, NaCl added to 150 mM final, the FRET peptide diluted to 20 μM final from a 2 mM stock.
To prepare plates, HCV replicon cells, with or without a Renilla luciferase reporter gene, were trypsinized and placed into each well of a 96-well plate with titrated test compounds added in columns 3 through 12; columns 1 and 2 contained a control compound (HCV protease inhibitor), and the bottom row contained cells without compound. The plates were then placed in a CO2 incubator at 37° C.
Assays. Subsequent to addition of the test compounds described above (FRET Assay Preparation), at various times the plate was removed and Alamar blue solution (Trek Diagnostics, #00-100) was added per well as a measure of cellular toxicity. After reading in a Cytoflour 4000 instrument (PE Biosystems), plates were rinsed with PBS and then used for FRET assay by the addition of 30 ul of the FRET peptide assay reagent described above (FRET Assay Preparation) per well. The plate was then placed into the Cytoflour 4000 instrument which had been set to 340 excite/490 emission, automatic mode for 20 cycles and the plate read in a kinetic mode. Typically, the signal to noise using an endpoint analysis after the reads was at least three-fold. Alternatively, after Alamar blue reading, plates were rinsed with PBS, 50 ul of DMEM (high glucose) without phenol red was added and plates were then used for luciferase assay using the Promega Dual-Glo Luciferase Assay System.
Compound analysis was determined by quantification of the relative HCV replicon inhibition and the relative cytotoxicity values. To calculate cytoxicity values, the average Alamar Blue fluorescence signals from the control wells were set as 100% non-toxic. The individual signals in each of the compound test wells were then divided by the average control signal and multiplied by 100% to determine […]. To calculate the HCV replicon inhibition values, an average background value was obtained from the two wells containing the highest amount of HCV protease inhibitor at the end of the assay period. These numbers were similar to those obtained from naïve Huh-7 cells.
The background numbers were then subtracted from the average signal obtained from the control wells and this number was used as 100% activity. The individual signals in each of the compound test wells were then divided by the averaged control values after background subtraction and multiplied by 100% to determine percent activity. EC50 values for a protease inhibitor titration were calculated as the concentration which caused a 50% reduction in FRET or luciferase activity. The two numbers generated for the compound plate, percent cytoxicity and percent activity were used to determine compounds of interest for further analysis.

[1] = Hepatitis C virus, 24 h, Table 1d (class symbols)
[2] = Hepatitis C virus, 24 h, second table titled Table 1d (numbers)

| Structure (SMILES) | EC50 [1] [nM] | EC50 (Hepatitis C virus, Table 1b) [nM] | other results |
| --- | --- | --- | --- |
| CNC(=O)c1c(-c2ccc(F)cc2)oc2ccc(-c3cc(C(=O)NC4(c5ccccn5)CC4)c(OCc4ccc(Cl)cc4)cc3C)cc12 | 1 to 250 | – | – |
| CNC(=O)c1c(-c2ccc(F)cc2)oc2ccc(-c3cc(C(=O)NC4(C(=O)Nc5nc(C)no5)CC4)c(OC)cc3C)cc12 | 1 to 250 | – | – |
| CNC(=O)c1c(-c2ccc(F)cc2)oc2ccc(-c3cc(C(=O)NC4(c5cnccn5)CC4)ccc3C)c(F)c12 | 1 to 250 | – | – |
| CNC(=O)c1c(-c2ccc(F)cc2)oc2ccc(-c3cc(C(=O)NCC(C)C)ccc3OCCN(Cc3ccccc3)Cc3ccccc3)cc12 | – | 1000 to 10000 | – |
| CNC(=O)c1c(-c2ccc(F)cc2)oc2ccc(-c3cc(C(=O)NC4(c5nc(C)cc(C)n5)CC4)c(OC)cc3C)c(F)c12 | 1 to 250 | – | – |
| CNC(=O)c1c(-c2ccc(F)cc2)oc2cc(NS(C)(=O)=O)c(/C=C/C(=O)OC(C)(C)C)cc12 | – | 1000 to 10000 | – |
| CNC(=O)c1c(-c2ccc(F)cc2)oc2ccc(-c3cc(C(=O)O)ccc3OC(F)(F)F)cc12 | – | > 10000 | – |
| CNC(=O)c1c(-c2ccc(F)cc2)oc2ccc(-c3cc(C(=O)NC4(c5nccc(C)n5)CC4)ccc3C)cc12 | 1 to 250 | – | – |
| CNC(=O)c1c(-c2ccc(F)cc2)oc2ccc(-c3cc(C(=O)NC4(c5nnc(-c6ccccc6OC)[nH]5)CC4)ccc3C)cc12 | – | < 250 | – |
| CNC(=O)c1c(-c2ccc(F)cc2)oc2ccc(-c3cc(C(=O)NC4(c5cccnn5)CC4)ccc3C)cc12 | 1 to 250 | – | – |
| CNC(=O)c1c(-c2ccc(F)cc2)oc2ccc(-c3cc(C(=O)NC4(c5ccccn5)CC4)c(OCC(=O)OC)cc3C)cc12 [drawing 642] | 250 to 1000 | – | – |
| CNC(=O)c1c(-c2ccc(F)cc2)oc2ccc(-c3cc(C(=O)NC4(c5ccccn5)CC4)c(OC4CCC4)cc3C)cc12 | 1 to 250 | – | – |
| CNC(=O)c1c(-c2ccc(F)cc2)oc2ccc(-c3cc(C(=O)NC4(c5nc(C)cc(C)n5)CC4)c(OC)cc3C)cc12 | 1 to 250 | – | – |
| CNC(=O)c1c(-c2ccc(F)cc2)oc2ccc(-c3cc(C(=O)NC4(c5cn(C)cn5)CC4)c(OC)cc3C)cc12 | – | < 250 | – |
| CNC(=O)c1c(-c2ccc(F)cc2)oc2ccc(-c3cc(C(=O)NC4(c5ccnnc5)CC4)c(OC)cc3C)c(F)c12 [drawing 701] | 1 to 250 | – | – |
| CNC(=O)c1c(-c2ccc(F)cc2)oc2ccc(-c3cc(C(=O)NCC(C)C)ccc3OCCCN3C(=O)c4ccccc4C3=O)cc12 | – | > 10000 | – |
| CNC(=O)c1c(-c2ccc(F)cc2)oc2ccc(-c3cc(C(=O)NC(C)(C)C)ccc3OC)c(F)c12 | 1 to 250 | – | – |
| CNC(=O)c1c(-c2ccc(F)cc2)oc2ccc(-c3cc(C(=O)NC4(c5cccnn5)CC4)c(OC)cc3C)c(F)c12 | 1 to 250 | – | – |
| CNC(=O)c1c(-c2ccc(F)cc2)oc2ccc(-c3cc(C(=O)NC4(c5ncc(C)s5)CC4)c(OC)cc3C)cc12 | – | < 250 | – |
| CNC(=O)c1c(-c2ccc(F)cc2)oc2ccc(-c3cc(C(=O)NC4(c5ccccn5)CC4)c(OCC4CCOC4)cc3C)cc12 (stereo not drawn) | 1 to 250 | – | – |
| CNC(=O)c1c(-c2ccc(F)cc2)oc2ccc(-c3cc(C(=O)NC4(c5nccc(C)n5)CC4)c(OC)cc3C)cc12 | 1 to 250 | – | – |
| CNC(=O)c1c(-c2ccc(F)cc2)oc2cc(N(CCO)S(C)(=O)=O)c(-c3cccc(C(=O)NC(C)(C)c4ccnc(C)c4)c3)cc12 | – | < 250 | – |
| CCCCOc1cc(C)c(-c2ccc3oc(-c4ccc(F)cc4)c(C(=O)NC)c3c2)cc1C(=O)NC1(c2ccccn2)CC1 | 1 to 250 | – | – |
| CNC(=O)c1c(-c2ccc(F)cc2)oc2ccc(-c3cc(C(=O)NC4(c5ncoc5C)CC4)c(OC)cc3C)cc12 [drawing 637] | 1 to 250 | – | – |
| CNC(=O)c1c(-c2ccc(F)cc2)oc2ccc(-c3cc(C(=O)NC4(c5ccccn5)CC4)c(OCC4CCCCO4)cc3C)cc12 (stereo not drawn) | 1 to 250 | – | – |
| CNC(=O)c1c(-c2ccc(F)cc2)oc2ccc(OCC(=O)NCc3ccco3)cc12 | – | – | EC50 (Hepatitis C virus, Table 1a): 1000 to 10000 nM |

| Structure (SMILES) | EC50 [1] [nM] | EC50 (Hepatitis C virus, Table 1b) [nM] | other results |
| --- | --- | --- | --- |
| CNC(=O)c1c(-c2ccc(F)cc2)oc2ccc(-c3ccc(-c4ccoc4)c(C(=O)NCC(C)C)c3)cc12 | – | < 250 | – |
| CNC(=O)c1c(-c2ccc(F)cc2)oc2ccc(-c3cc(C(=O)NCC(C)C)ccc3OCCC3CNCCO3)cc12 (stereo not drawn) [drawing 567] | – | – | EC50 (Table 1b): < 250 nM |
| CNC(=O)c1c(-c2ccc(F)cc2)oc2ccc(-c3cc(C(=O)NC4(c5ccccn5)CC4)c(OCC(=O)OC)cc3C)cc12 [drawing 710] | – | – | EC50 [2]: 210 nM |
| CNC(=O)c1c(-c2ccc(F)cc2)oc2ccc(-c3cc(C(=O)NC4(c5ccnnc5)CC4)c(OC)cc3C)c(F)c12 [drawing 715] | – | – | EC50 [2]: 56 nM |
| CNC(=O)c1c(-c2ccc(F)cc2)oc2ccc(-c3cc(C(=O)NC4(c5ncc(F)cn5)CC4)ccc3C)cc12 | 1 to 250 | – | – |
| CNC(=O)c1c(-c2ccc(F)cc2)oc2ccc(-c3cc(C(=O)NC4(c5ncc(F)cn5)CC4)c(OC)cc3C)cc12 | 1 to 250 | – | – |
| CNC(=O)c1c(-c2ccc(F)cc2)oc2ccc(-c3cc(C(=O)NC4(c5ccccn5)CC4)ccc3C3CC3)cc12 | – | > 10000 | – |
| CNC(=O)c1c(-c2ccc(F)cc2)oc2ccc(-c3cc(C(=O)NC4(c5ccccn5)CC4)c(OCCN4CCN(C)CC4)cc3C)cc12 | 1 to 250 | – | – |
| CNC(=O)c1c(-c2ccc(F)cc2)oc2ccc(-c3cc(C(=O)NC4(c5nc(C)cc(C)n5)CC4)ccc3C)c(F)c12 | 1 to 250 | – | – |
| CNC(=O)c1c(-c2ccc(F)cc2)oc2ccc(-c3ccc(CCC(C)C)c(C(=O)NCC(C)C)c3)cc12 | – | > 10000 | – |
| CNC(=O)c1c(-c2ccc(F)cc2)oc2ccc(-c3cc(C(=O)NC4(c5ccccn5)CC4)c(OCCC4CC4)cc3C)cc12 | 1 to 250 | – | – |
| CNC(=O)c1c(-c2ccc(F)cc2)oc2ccc(-c3cc(C(=O)NC4(c5ccccn5)CC4)c(OCCc4ccccc4)cc3C)cc12 | 1 to 250 | – | – |
| CNC(=O)c1c(-c2ccc(F)cc2)oc2ccc(-c3cc(C(=O)NC4(c5ccnnc5)CC4)ccc3C)cc12 | 1 to 250 | – | – |
| CCNC(=O)c1cc(-c2ccc3oc(-c4ccc(F)cc4)c(C(=O)NC)c3c2F)c(C)cc1OC | – | < 250 | – |
| CNC(=O)c1c(-c2ccc(F)cc2)oc2ccc(-c3cc(C(=O)NC4(c5ncc(C)cn5)CC4)c(OC)cc3C)cc12 | 1 to 250 | – | – |
| CNC(=O)c1c(-c2ccc(F)cc2)oc2ccc(-c3cccc(C(=O)NC(C)(C)c4ccccn4)c3)cc12 | – | < 250 | – |
| CNC(=O)c1c(-c2ccc(F)cc2)oc2ccc(-c3cc(C(=O)NC4(c5cnccn5)CC4)ccc3C)cc12 | 1 to 250 | – | – |
| CNC(=O)c1c(-c2ccc(F)cc2)oc2ccc(-c3cc(C(=O)NC4(c5ncc(F)cn5)CC4)c(OC)cc3C)c(F)c12 [drawing 714] | – | – | EC50 [2]: 10 nM |
| CNC(=O)c1c(-c2ccc(F)cc2)oc2ccc(-c3cc(C(=O)NC4(c5ncoc5C)CC4)c(OC)cc3C)cc12 [drawing 709] | – | – | EC50 [2]: 2 nM |
| CNC(=O)c1c(-c2ccc(F)cc2)oc2ccc(-c3ccc(-c4cccnc4)c(C(=O)NCC(C)C)c3)cc12 | – | < 250 | – |
| CNC(=O)c1c(-c2ccc(F)cc2)oc2ccc(-c3cc(C(=O)NC4(c5noc(C)n5)CC4)c(OC)cc3Cl)cc12 | – | < 250 | – |
| CNC(=O)c1c(-c2ccc(F)cc2)oc2ccc(-c3cc(C(=O)NC4(c5ccccn5)CC4)c(OCCc4ccc(N(C)C)cc4)cc3C)cc12 | 1 to 250 | – | – |
| CNC(=O)c1c(-c2ccc(F)cc2)oc2ccc(-c3cc(C(=O)OC)c(OC)cc3OCC(N)=O)cc12 | – | 1000 to 10000 | – |
| CNC(=O)c1c(-c2ccc(F)cc2)oc2ccc(-c3cc(C(=O)NC4(c5ncc(C)cn5)CC4)c(OC)cc3C)c(F)c12 | 1 to 250 | – | – |
| CNC(=O)c1c(-c2ccc(F)cc2)oc2ccc(-c3cc(C(=O)NC4(c5cncnc5)CC4)ccc3C)cc12 | – | < 250 | – |
